From article PMC2766634 (Journal of medicinal chemistry, 2009) come the findings set out here.

Values joined by “and” are separate entries in the source; they are usually repeats but may differ in a detail not shown here. Identical values can stand only once. Marks after values point to notes of the source that are not given here. Where only a bound is given, the exact number is not on record here.

The nature of series [1]: Cyclic voltammetry in water pH 7.0. Type of series: physicochemical. The settings on record: pH 7.0 phosphate buffer, 0.1 M KCl, 25 °C.
Series [2] can be described thus: Cyclic voltammetry in DMSO. Type of series: physicochemical. The settings on record: for E1/2 in DMSO (half-wave potential, 0/−1 reduction), mean ± SE: cyclic voltammetry, 0.10 M NBu4PF6 in DMSO, 25 °C, 100 mV/s; for E1/2 more positive than Mz: in DMSO, relative to Mz.
The subject of series [3] is G. lamblia (WB/C6, GS/M, 106, and 713). Put plainly: Antigiardial growth inhibition. Type of series: cell-based, Giardia lamblia. The settings on record: for selectivity ratio, IC50/EC50: IC50 in HeLa cells / EC50 in Giardia.
The test system of series [4] is HeLa cells. Put plainly: Cytotoxicity assay. Type of series: cell-based, human. The settings on record: for IC50: Homo sapiens, HeLa, 48 h, read-out: toxicity in HeLa cells, pIC50 (mean ± SE) (converted).
Series [5] relates to G. lamblia GS/M. Description: Murine G. lamblia infection model. The settings on record: mice, five doses over 3 days. In kind it is in vivo, Giardia lamblia in C57BL/6 mice.

As for `Cc1cccc(/C=C/c2ncc([N+](=O)[O-])n2C)c1` [compound 7, 1-Methyl-2-[(E)-2-(3-methylphenyl)vinyl]-5-nitro-1H-imidazole], in series [1], the “Ep in water (peak potential), mean ± SE” value was −0.635 ± 0.003 V vs SCE. Besides, in series [2], the “E1/2 in DMSO (half-wave potential, 0/−1 reduction), mean ± SE” value is listed as −1.516 ± 0.001 V vs Fc.

As for `Cn1c([N+](=O)[O-])cnc1/C=C/c1ccsc1` [compound 31, 1-Methyl-5-nitro-2-[(E)-2-(3-thienyl)vinyl]-1H-imidazole], the “Ep in water (peak potential), mean ± SE” value in series [1] is reported as −0.595 ± 0.001 V vs SCE. Besides, the “E1/2 in DMSO (half-wave potential, 0/−1 reduction), mean ± SE” value in series [2] is reported as −1.508 ± 0.002 V vs Fc. In addition, the “selectivity ratio, IC50/EC50” value in series [3] is listed as >1,023.

On to `Cn1c([N+](=O)[O-])cnc1C(Br)C(Br)c1ccc(Br)cc1` (centres unmarked) [compound 33, 2-[1,2-Dibromo-2-(4-bromophenyl)ethyl]-1-methyl-5-nitro-1H-imidazole], for which, in series [2], the “E1/2 in DMSO (half-wave potential, 0/−1 reduction), mean ± SE” value was −1.493 ^d ± 0.004 V vs Fc.

Regarding `Cn1c([N+](=O)[O-])cnc1/C=C/c1ccccc1-c1ccccc1` [compound 24, 2-[(E)-2-Biphenyl-2-ylvinyl]-1-methyl-5-nitro-1H-imidazole], the “E1/2 in DMSO (half-wave potential, 0/−1 reduction), mean ± SE” value in series [2] is recorded as −1.512 ± 0.001 V vs Fc. Regarding `COc1ccc(/C=C/c2ncc([N+](=O)[O-])n2C)c(OC)c1OC` [compound 22, 1-Methyl-5-nitro-2-[(E)-2-(2,3,4-trimethoxyphenyl)vinyl]-1H-imidazole], in series [1], the “Ep in water (peak potential), mean ± SE” value is −0.757 ± 0.003 V vs SCE. Besides, in series [2], the “E1/2 in DMSO (half-wave potential, 0/−1 reduction), mean ± SE” value was −1.584 ± 0.005 V vs Fc. In the case of `Cn1c([N+](=O)[O-])cnc1/C=C/c1ccccc1Cl` [compound 13, 2-[(E)-2-(2-Chlorophenyl)vinyl]-1-methyl-5-nitro-1H-imidazole], the “E1/2 in DMSO (half-wave potential, 0/−1 reduction), mean ± SE” value in series [2] is on record as −1.486 ± 0.004 V vs Fc. The same measure, in the same setting: next, `Cn1c([N+](=O)[O-])cnc1/C=C/c1cccc(Br)c1` [compound 11, 2-[(E)-2-(3-Bromophenyl)vinyl]-1-methyl-5-nitro-1H-imidazole]: −1.497 ± 0.005 V vs Fc.

As to `Cn1c([N+](=O)[O-])cnc1/C=C/c1cccc(I)c1` [compound 18, 2-[(E)-2-(3-Iodophenyl)vinyl]-1-methyl-5-nitro-1H-imidazole], the “E1/2 in DMSO (half-wave potential, 0/−1 reduction), mean ± SE” value in series [2] is on record as −1.494 ± 0.004 V vs Fc. Moreover, the IC50 in series [4] was 31.6 µM. For the molecule `Cn1c([N+](=O)[O-])cnc1/C=C/c1ccc(Cl)cc1Cl` [compound 16, 2-[(E)-2-(2,4-Dichlorophenyl)vinyl]-1-methyl-5-nitro-1H-imidazole], in series [2], the “E1/2 in DMSO (half-wave potential, 0/−1 reduction), mean ± SE” value is recorded as −1.469 ± 0.002 V vs Fc and the “E1/2 more positive than Mz” value is ~ 90 mV. Consider `Cc1ccccc1/C=C/c1ncc([N+](=O)[O-])n1C` [compound 6, 1-Methyl-2-[(E)-2-(2-methylphenyl)vinyl]-5-nitro-1H-imidazole], for which the “Ep in water (peak potential), mean ± SE” value in series [1] is reported as −0.621 ± 0.001 V vs SCE. Further, the “E1/2 in DMSO (half-wave potential, 0/−1 reduction), mean ± SE” value in series [2] was −1.512 ± 0.001 V vs Fc. In addition, in series [4], the IC50 was 93.3 µM.

On to `Cn1c([N+](=O)[O-])cnc1/C=C/c1cccc(Cl)c1` [compound 14, 2-[(E)-2-(3-Chlorophenyl)vinyl]-1-methyl-5-nitro-1H-imidazole], for which, in series [2], the “E1/2 in DMSO (half-wave potential, 0/−1 reduction), mean ± SE” value is listed as −1.492 ± 0.002 V vs Fc. With `Cn1c([N+](=O)[O-])cnc1CCc1ccc(Br)cc1` [compound 42, 2-[2-(4-Bromophenyl)ethyl]-1-methyl-5-nitro-1H-imidazole], in series [2], the “E1/2 in DMSO (half-wave potential, 0/−1 reduction), mean ± SE” value is listed as −1.592 ± 0.003 V vs Fc. Moreover, the IC50 in series [4] is 97.7 µM. `Cc1ccc(C(O)C(O)c2ncc([N+](=O)[O-])n2C)cc1` (centres unmarked) [compound 34, 1-(1-Methyl-5-nitro-1H-imidazol-2-yl)-2-(4-methylphenyl)-ethane-1,2-diol]: in series [2], the “E1/2 in DMSO (half-wave potential, 0/−1 reduction), mean ± SE” value is given as −1.557 ± 0.001 V vs Fc. Regarding `Cn1c([N+](=O)[O-])cnc1/C=C/c1cccc2ccccc12` [compound 25, 1-Methyl-2-[(E)-2-(1-naphthyl)vinyl]-5-nitro-1H-imidazole], in series [2], the “E1/2 in DMSO (half-wave potential, 0/−1 reduction), mean ± SE” value is listed as −1.502 ± 0.004 V vs Fc. Further, the “selectivity ratio, IC50/EC50” value in series [3] is reported as 1,000. `Cn1c([N+](=O)[O-])cnc1/C=C/c1ccc(OC(F)(F)F)cc1` [compound 21, 1-Methyl-5-nitro-2-{(E)-2-[4-(trifluoromethoxy)phenyl]vinyl}-1H-imidazole]: the “E1/2 in DMSO (half-wave potential, 0/−1 reduction), mean ± SE” value in series [2] is listed as −1.487 ± 0.001 V vs Fc. For the molecule `COc1cccc(/C=C/c2ncc([N+](=O)[O-])n2C)c1` [compound 20, 2-[(E)-2-(3-Methoxyphenyl)vinyl]-1-methyl-5-nitro-1H-imidazole], the “Ep in water (peak potential), mean ± SE” value in series [1] was −0.763 ± 0.001 V vs SCE. The “E1/2 in DMSO (half-wave potential, 0/−1 reduction), mean ± SE” value in series [2] is −1.580 ± 0.007 V vs Fc. For the molecule `CCOC(OCC)c1ccc(/C=C/c2ncc([N+](=O)[O-])n2C)cc1` [compound 23, 2-{(E)-2-[4-(Diethoxymethyl)phenyl]vinyl}-1-methyl-5-nitro-1H-imidazole], the “E1/2 in DMSO (half-wave potential, 0/−1 reduction), mean ± SE” value in series [2] is on record as −1.518 ± 0.003 V vs Fc. Also, the IC50 in series [4] is 97.7 µM.

With `Cc1ccc(C(Br)C(Br)c2ncc([N+](=O)[O-])n2C)cc1` (centres unmarked) [compound 3, reference compound], the “E1/2 in DMSO (half-wave potential, 0/−1 reduction), mean ± SE” value in series [2] is given as −1.489 ^d ± 0.001 V vs Fc. Further, the “more toxic than Mz in HeLa” value in series [4] (relative to Mz) is above 500 fold. In series [3] (relative to Mz), the “increased antigiardial activity over Mz” value is 40 fold and the “selectivity ratio lower than that of Mz” value was above 10 fold. As for `Cn1c([N+](=O)[O-])cnc1C(O)C(O)c1ccc(Br)cc1` (centres unmarked) [compound 35, 1-(4-Bromophenyl)-2-(1-methyl-5-nitro-1H-imidazol-2-yl)-ethane-1,2-diol], the “E1/2 in DMSO (half-wave potential, 0/−1 reduction), mean ± SE” value in series [2] is reported as −1.544 ± 0.001 V vs Fc.

In the case of `Cn1c([N+](=O)[O-])cnc1/C=C/c1ccc(Cl)cc1` [compound 15, 2-[(E)-2-(4-Chlorophenyl)vinyl]-1-methyl-5-nitro-1H-imidazole], the “Ep in water (peak potential), mean ± SE” value in series [1] is −0.584 ± 0.001 V vs SCE. In addition, the “E1/2 in DMSO (half-wave potential, 0/−1 reduction), mean ± SE” value in series [2] is reported as −1.503 ± 0.001 V vs Fc.

For the molecule `Cn1c([N+](=O)[O-])cnc1/C=C/c1ccccc1Br` [compound 10, 2-[(E)-2-(2-Bromophenyl)vinyl]-1-methyl-5-nitro-1H-imidazole], the “E1/2 in DMSO (half-wave potential, 0/−1 reduction), mean ± SE” value in series [2] is −1.481 ± 0.001 V vs Fc. In the case of “2-[(E)-2-(3a,7a-Dihydro-1,3-benzodioxol-5-yl)vinyl]-1-methyl-5-nitro-1H-imidazole [compound 27]”, the “Ep in water (peak potential), mean ± SE” value in series [1] is −0.778 ± 0.002 V vs SCE. Moreover, the “E1/2 in DMSO (half-wave potential, 0/−1 reduction), mean ± SE” value in series [2] is listed as −1.584 ± 0.001 V vs Fc. Also, the “toxicity in HeLa cells, pIC50 (mean ± SE)” value in series [4] (2 days culture, three separate experiments) is reported as 4.13 ± 0.10. In addition, the “selectivity ratio, IC50/EC50” value in series [3] is given as 1,072. Moreover, in series [3] (mean ± SE of average pEC50 of four isolates (WB/C6, GS/M, 106, 713)), the “Activity against G. lamblia pEC50 (mean ± SE)” value is on record as 7.16 ± 0.34.

On to `Cc1ccc(/C=C/c2ncc([N+](=O)[O-])n2C)cc1` [compound 8, 1-Methyl-2-[(E)-2-(4-methylphenyl)vinyl]-5-nitro-1H-imidazole], for which the “E1/2 in DMSO (half-wave potential, 0/−1 reduction), mean ± SE” value in series [2] is reported as −1.522 ± 0.003 V vs Fc. Also, in series [3], the “selectivity ratio, IC50/EC50” value is reported as above 617. For the molecule `Cn1c([N+](=O)[O-])cnc1/C=C/c1ccc2ccccc2c1` [compound 26, 1-Methyl-2-[(E)-2-(2-naphthyl)vinyl]-5-nitro-1H-imidazole], in series [2], the “E1/2 in DMSO (half-wave potential, 0/−1 reduction), mean ± SE” value is reported as −1.509 ± 0.001 V vs Fc. Besides, the IC50 in series [4] is 97.7 µM. Moreover, the “selectivity ratio, IC50/EC50” value in series [3] is given as 1,622.

Turning to `Cn1c([N+](=O)[O-])cnc1CCc1ccccc1` [compound 40, 1-Methyl-5-nitro-2-(2-phenylethyl)-1H-imidazole], in series [2], the “E1/2 in DMSO (half-wave potential, 0/−1 reduction), mean ± SE” value is −1.593 ± 0.002 V vs Fc.

Consider `CC(=O)OC(c1ccc(Br)cc1)C(OC(C)=O)c1ncc([N+](=O)[O-])n1C` (centres unmarked) [compound 37, 1-(1-Methyl-5-nitro-1H-imidazol-2-yl)-2-(4-bromophenyl)-ethane-1,2-diyl Diacetate], for which, in series [4], the IC50 is 97.7 µM.

Take `Cn1cncc1[N+](=O)[O-]` [1-methyl-5-NI, reference compound]: the “E1/2 in DMSO (half-wave potential, 0/−1 reduction), mean ± SE” value in series [2] was −1.557 V vs Fc and −1.557 ± 0.001 V vs Fc.

Turning to `Cc1cc(C)c(/C=C/c2ncc([N+](=O)[O-])n2C)c(C)c1` [compound 9, 1-Methyl-2-[(E)-2-(2,4,6-trimethylphenyl)vinyl]-5-nitro-1H-imidazole], in series [2], the “E1/2 in DMSO (half-wave potential, 0/−1 reduction), mean ± SE” value is −1.529 ± 0.001 V vs Fc and the “E1/2 more positive than Mz” value was 30–50 mV. Besides, the IC50 in series [4] is 11 µM. On to `Cn1c([N+](=O)[O-])cnc1/C=C/c1cccs1` [compound 30, 1-Methyl-5-nitro-2-[(E)-2-(2-thienyl)vinyl]-1H-imidazole], for which the “Ep in water (peak potential), mean ± SE” value in series [1] is −0.658 ± 0.001 V vs SCE. For the same molecule, the “E1/2 in DMSO (half-wave potential, 0/−1 reduction), mean ± SE” value in series [2] is −1.528 ± 0.003 V vs Fc. Moreover, in series [3], the “selectivity ratio, IC50/EC50” value is listed as 1,122.

Consider `Cc1ccc(CCc2ncc([N+](=O)[O-])n2C)cc1` [compound 41, 1-Methyl-2-[2-(4-methylphenyl)ethyl]-5-nitro-1H-imidazole], for which the “E1/2 in DMSO (half-wave potential, 0/−1 reduction), mean ± SE” value in series [2] is reported as −1.592 ± 0.003 V vs Fc. Consider `Cc1ncc([N+](=O)[O-])n1CCO` [Mz, metronidazole, reference compound], for which the “effect on infection (trophozoites in small intestine) at 2 mg/kg” value in series [5] (2 mg/kg oral gavage) is reported as “no significant effect”. Moreover, the “effect on infection (trophozoites in small intestine) at 10 mg/kg” value in series [5] (10 mg/kg oral gavage) is listed as “not parasite eradication”.
